The record followed here is patent EP4702986A1, “POLYPEPTIDE AND USE THEREOF” (Biocells (Beijing) Biotech Co., Ltd., priority 2023, dated 2024).

Like-named read-outs stand apart in the source and are kept apart here. Numbered stars: 1 amine (or outer) side, 2 acyl side, 3 side chain; on linkers, the order of the positions; unused ones are H or OH. Side chains are listed from the residue outwards. Ends that are not written are not given here. Peptide text beside a SMILES is read from it. * marks the point of attachment. X1 = C[C@H](NC(=O)[C@@H]1CCCN1C(=O)[C@@H](N)CSC1CC(=O)N(CCC(=O)*)C1=O)C(=O)N[C@@H](CCCCN)C(=O)O; C18 diacid = O=C(O)CCCCCCCCCCCCCCCCC(=O)*; γGlu = O=C(O)[C@H](CCC(=O)[*:2])N[*:1]; Fumaroyl = O=C(O)/C=C/C(=O)*; Suc = O=C(CCC(=O)[*:2])[*:1]; Lauroyl = CCCCCCCCCCCC(=O)*; AEEA = NCCOCCOCC(=O)O

One assay deals with T1, human ETA receptor (Homo sapiens, UniProt P25101).
T1 construct: expressed in transfected cells; host or cells: 293T-17 cells, transient transfection
T1 sequence (P25101 21-427): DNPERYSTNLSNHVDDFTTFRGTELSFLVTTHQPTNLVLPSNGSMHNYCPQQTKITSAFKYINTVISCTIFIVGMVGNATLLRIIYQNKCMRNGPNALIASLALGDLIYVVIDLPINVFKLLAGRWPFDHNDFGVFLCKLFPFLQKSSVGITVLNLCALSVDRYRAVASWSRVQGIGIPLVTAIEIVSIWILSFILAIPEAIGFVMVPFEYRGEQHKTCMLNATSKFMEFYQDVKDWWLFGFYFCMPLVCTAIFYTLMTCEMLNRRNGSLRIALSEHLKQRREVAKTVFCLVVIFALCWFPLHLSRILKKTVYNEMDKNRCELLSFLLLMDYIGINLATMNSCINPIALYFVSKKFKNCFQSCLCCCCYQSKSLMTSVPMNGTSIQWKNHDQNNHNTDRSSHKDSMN
Put plainly: Selectivity of polypeptides on human ETA receptor (IP-One Gq kit, % of positive control ET1). It is filed as cell-based. The method in brief: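 293T-17 cells transiently transfected with human ETA receptor (48 h), 30,000 cells/well exposed to polypeptides for 1 h at 37°C; IP1 accumulation by HTRF (665/620 nm ratio). Activity given as % of ET1 at the same concentration after PBS-control subtraction.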

For the next assay, the target named is T2, human ETB receptor (Homo sapiens, UniProt P24530).
T2 construct: expressed in transfected cells; host or cells: 293T-17 cells, transient transfection
T2 sequence (P24530 27-442): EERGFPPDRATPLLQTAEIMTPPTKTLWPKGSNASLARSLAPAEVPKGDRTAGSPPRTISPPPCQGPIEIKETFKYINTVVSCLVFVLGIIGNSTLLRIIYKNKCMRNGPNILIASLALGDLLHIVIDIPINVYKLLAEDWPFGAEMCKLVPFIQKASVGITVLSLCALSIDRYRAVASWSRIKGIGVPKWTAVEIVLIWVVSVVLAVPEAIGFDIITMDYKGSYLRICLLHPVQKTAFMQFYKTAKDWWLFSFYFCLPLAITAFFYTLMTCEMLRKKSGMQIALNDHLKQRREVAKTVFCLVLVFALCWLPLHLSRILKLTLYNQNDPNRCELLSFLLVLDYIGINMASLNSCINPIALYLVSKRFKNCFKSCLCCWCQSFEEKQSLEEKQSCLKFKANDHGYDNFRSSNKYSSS
The experiment in a line: Determination of EC50 of polypeptides against human ETB receptor (IP-One Gq kit). It is filed as cell-based. The method, then:
293T-17 cells were seeded at a density of 650,000 cells per well in a 6-well plate and cultured overnight in an incubator at 37°C and 5% CO2. Afterward, the cells were transfected with an expression vector, PCDNA3.1-hETB which contained a human ETB receptor gene, at a plasmid concentration of 2.5 µg per well. The cells were further cultured for 48 hours, and green fluorescence expression was observed under a fluorescence microscope. The cells were then digested with trypsin and counted. The activity of compounds on the human ETB receptor was determined with the IP-One Gq kit from Cisbio Bioassays. The cells were suspended in Stim Buffer provided in the kit and the cell suspension was added to a 96-well detection plate at 7 µL cell suspension (containing 30,000 cells) per well. The polypeptides to be tested (prepared according to the Preparation Example of the invention) were diluted in Stim B to obtain a gradient of 11 concentration points. For each concentration point, the polypeptides to be tested were dissolved in Stim B to be at a concentration of 2×, and added at 7 µL to the test cells, while 7 µL of PBS solution was added to the cells in the negative control wells. The plate was sealed and incubated at 37°C for 1 hour in a cell culture incubator. Detection wells, positive control wells containing human endothelin ET1 (ET1: […] (C1-C15,C3-C11)), and PBS control wells were each added with 3 µL of IP1 d2 working solution and 3 µL of IP1 Tb cryptotate Antibody working solution. The plate was then sealed and incubated in the dark at room temperature (25°C±5°C) for 1 hour. The plate seal was removed, and the […] at 665 nm and 620 nm was measured with an ID5 microplate reader. The ratio of the acceptor emission signal to the donor emission signal, i.e., (signal at 665 nm/signal at 620 nm)×10^4, was calculated for each well. With F representing the average value of values of signal at 665 nm/signal at 620 nm for the test samples at various concentrations, a scatterplot was plotted, where the abscissa represented the F value, and the ordinate represented the logarithmic value of the peptide concentration. A curve was fitted with an appropriate method to calculate EC50 values of the polypeptides against the human ETB receptor. Another method was provided for fitting a curve where activation rate of the test polypeptides at each concentration relative to the positive control sample human endothelin ET1 was calculated first with the method in Example 1, and a scatterplot was plotted, where the abscissa represented the activation rate, and the ordinate represented the logarithmic value of the polypeptide concentration. A curve was fitted with an appropriate method to calculate the EC50 values of the polypeptides against the human ETB receptor.

Where [1] appears, read: read-out: hETAR agonist activity, percentage of activity relative to ET1.
[2] abbreviates: 293T-17 cells transfected with PCDNA3.1-hETB, read-out: hETBR agonist activity EC50/nM.

For Fum-DEEEVYFAHOrnDIIW [BX-59], the “hETAR agonist activity, percentage of activity relative to ET1” value was -7.67%@100µM on human ETA receptor and -10.61%@10µM on human ETA receptor (@10µM).
Consider `CC[C@H](C)[C@H](NC(=O)[C@H](CC(=O)O)NC(=O)[C@H](CCCCNC(=O)COCCOCCNC(=O)CCN1C(=O)CC(SC[C@H](N)C(=O)N2CCC[C@H]2C(=O)N[C@@H](C)C(=O)N[C@@H](CCCCN)C(=O)O)C1=O)NC(=O)[C@H](Cc1c[nH]cn1)NC(=O)[C@H](C)NC(=O)[C@H](Cc1ccccc1)NC(=O)[C@H](Cc1ccc(O)cc1)NC(=O)[C@@H](NC(=O)[C@H](C)NC(=O)[C@H](CCC(=O)O)NC(=O)[C@H](CCC(=O)O)NC(=O)[C@H](CC(=O)O)NC(=O)/C=C/C(=O)O)C(C)C)C(=O)N[C@H](C(=O)N[C@@H](Cc1c[nH]c2ccccc12)C(=O)O)[C@@H](C)CC` (stereo partly shown) [BX-95] (Fumaroyl-DEEAVYFAHK([AEEA-X1])DIIW-OH), for which, on human ETA receptor (setting [1]), the activation at 10 µM is -9.81% and the activation at 100 µM was -7.46%. Moreover, the EC50 at human ETB receptor (setting [2]) is 45.6 nM.
In the case of `CCCCCCCCCCCC(=O)N[C@@H](CCC(=O)NCCOCCOCC(=O)NCCCC[C@H](NC(=O)[C@H](Cc1c[nH]cn1)NC(=O)[C@H](C)NC(=O)[C@H](Cc1ccccc1)NC(=O)[C@H](Cc1ccc(O)cc1)NC(=O)[C@@H](NC(=O)[C@H](C)NC(=O)[C@H](CCC(=O)O)NC(=O)[C@H](CCC(=O)O)NC(=O)[C@H](CC(=O)O)NC(=O)/C=C/C(=O)O)C(C)C)C(=O)N[C@@H](CC(=O)O)C(=O)N[C@H](C(=O)N[C@H](C(=O)N[C@@H](Cc1c[nH]c2ccccc12)C(=O)O)[C@@H](C)CC)C(C)C)C(=O)O` [BX229-Na] (Fumaroyl-DEEAVYFAHK([AEEA-γGlu-Lauroyl])DVIW-OH), the activation at 100 µM at human ETA receptor (@100µM, read-out: hETAR agonist activity, percentage of activity relative to ET1) was determined as 0.68%. Further, the EC50 on human ETB receptor (setting [2]) was determined as 16.7 nM.
For the molecule `CC[C@H](C)[C@H](NC(=O)[C@H](CC(=O)O)NC(=O)[C@H](CC(C)C)NC(=O)[C@H](Cc1c[nH]cn1)NC(=O)[C@H](C)NC(=O)[C@H](Cc1ccccc1)NC(=O)[C@H](Cc1ccc(O)cc1)NC(=O)[C@@H](NC(=O)[C@H](C)NC(=O)[C@H](CCC(=O)O)NC(=O)[C@H](CCC(=O)O)NC(=O)[C@H](CC(=O)O)NC(=O)CCC(=O)O)C(C)C)C(=O)N[C@H](C(=O)N[C@@H](Cc1c[nH]c2ccccc12)C(=O)O)[C@@H](C)CC` [IRL1620, reference compound] (Suc-DEEAVYFAHLDIIW-OH), the EC50 on human ETB receptor was found to be 1.33 nM.
Take `CC[C@H](C)[C@H](NC(=O)[C@H](CC(=O)O)NC(=O)[C@H](CCCCNC(=O)COCCOCCNC(=O)COCCOCCNC(=O)CC[C@H](NC(=O)CCCCCCCCCCCCCCCCC(=O)O)C(=O)O)NC(=O)[C@H](Cc1c[nH]cn1)NC(=O)[C@H](C)NC(=O)[C@H](Cc1ccccc1)NC(=O)[C@H](Cc1ccc(O)cc1)NC(=O)[C@@H](NC(=O)[C@H](C)NC(=O)[C@H](CCC(=O)O)NC(=O)[C@H](CCC(=O)O)NC(=O)[C@H](CC(=O)O)NC(=O)/C=C/C(=O)O)C(C)C)C(=O)N[C@H](C(=O)N[C@@H](Cc1c[nH]c2ccccc12)C(=O)O)[C@@H](C)CC` [BX-34] (Fumaroyl-DEEAVYFAHK([AEEA-AEEA-γGlu-C18 diacid])DIIW-OH): at human ETA receptor (setting [1]), the activation at 0.01 µM was -23.5% and the activation at 0.1 µM is -11%.
Regarding “Fum-DEEEVYFAHKDIIW (Fumaroyl-DEEEVYFAHKDIIW) [BX-52]”, the entries for the “hETAR agonist activity, percentage of activity relative to ET1” value with human ETA receptor (@10nM) and in the assay with human ETA receptor (@100nM) were -2.49%@10nM and -11.24%@100nM, respectively.
With `CCCCCCCCCCCC(=O)N[C@@H](CCC(=O)NCCOCCOCC(=O)NCCCC[C@H](NC(=O)[C@H](Cc1c[nH]cn1)NC(=O)[C@H](C)NC(=O)[C@H](Cc1ccccc1)NC(=O)[C@H](Cc1ccc(O)cc1)NC(=O)[C@@H](NC(=O)[C@H](C)NC(=O)[C@H](CCC(=O)O)NC(=O)[C@H](CCC(=O)O)NC(=O)[C@H](CC(=O)O)NC(=O)/C=C/C(=O)O)C(C)C)C(=O)N[C@@H](CC(=O)O)C(=O)N[C@H](C(=O)N[C@H](C(=O)N[C@@H](Cc1c[nH]c2ccccc12)C(=O)O)[C@@H](C)CC)[C@@H](C)CC)C(=O)O` [BX-225] (Fumaroyl-DEEAVYFAHK([AEEA-γGlu-Lauroyl])DIIW-OH), at human ETA receptor (setting [1]), the activation at 10 µM came out at 0.52% and the activation at 100 µM was found to be 3.59%.
Regarding “Suc-DE cyclo(CEEC)YFAHKDIIW (Suc-DECEECYFAHKDIIW; not fully specified (bridges); printed as Suc-DE cyclo(CEEC)YFAHKDIIW; also: cyclo(CEEC) in N-terminal extension, bond type not given here) [BX-57]”, the “hETAR agonist activity, percentage of activity relative to ET1” value with human ETA receptor is -10.53%@100µM; with human ETA receptor (@10µM) it was -29.04%@10µM.
